Results published in the supplement of paper PMC10307832.

Assays:
Assay in all cases: relative viability (nuclei count vs DMSO), 5 days (fraction); higher = more cells survive
[1] = compound: CC1=CC(=CC=C1)NC2=NC(=CS2)C3=CC=NC=C3 + N=C(N)NC(=N)NCCc1ccccc1 [Phenformin] (partner 250 µM)
Outline: (§1)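 Values are medians from duplicate plates. Each reflects relative viability, defined as the nuclei count of treated wells over that of vehicle wells. Lung cancer cell lines in 1536-well plates were pin-tool dosed one day after seeding with one drug alone or with a fixed anchor-drug dose plus five library-drug doses (not always all listed) in √10 steps, then fixed, stained and imaged at 4× after 5 days.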

[2] = compound: CC1=CC(=CC=C1)NC2=NC(=CS2)C3=CC=NC=C3 + CCNC(=O)c1noc(-c2cc(C(C)C)c(O)cc2O)c1-c1ccc(CN2CCOCC2)cc1 [Luminespib] (partner 0.01 µM)
Outline: as §1

[3] = compound: Cc1ccc(NC(=O)c2ccc(CN3CCN(C)CC3)cc2)cc1Nc1nc(-c2cccnc2)cs1 [Masitinib] + CCNC(=O)c1noc(-c2cc(C(C)C)c(O)cc2O)c1-c1ccc(CN2CCOCC2)cc1 [Luminespib] (partner 0.01 µM)
Outline: as §1

[4] = compound: Cc1ccc(NC(=O)c2ccc(CN3CCN(C)CC3)cc2)cc1Nc1nc(-c2cccnc2)cs1 [Masitinib] + N=C(N)NC(=N)NCCc1ccccc1 [Phenformin] (partner 250 µM)
Outline: as §1

Cell Line UMC-11 has a relative viability ([1]; first compound 0.08 µM) of 0.314, a relative viability ([1]; first compound 0.253 µM) of 0.298 and a relative viability ([1]; first compound 0.8 µM) of 0.32. It also gave a relative viability ([1]; first compound 2.53 µM) of 0.307, a relative viability ([1]; first compound 8 µM) of 0.349 and a relative viability ([2]; first compound 0.08 µM) of 1.01. It also gave a relative viability ([2]; first compound 0.253 µM) of 1.05, a relative viability ([2]; first compound 0.8 µM) of 1.06 and a relative viability ([2]; first compound 2.53 µM) of 1.07. For the same cell line, the relative viability ([2]; first compound 8 µM) was 1.09, the relative viability ([3]; first compound 0.03162 µM) was 1.08 and the relative viability ([3]; first compound 0.1 µM) was 1.13. For the same cell line, the relative viability ([3]; first compound 0.3162 µM) was 1.17, the relative viability ([3]; first compound 1 µM) was 1.12 and the relative viability ([4]; first compound 0.03162 µM) was 0.331. The relative viability ([4]; first compound 0.1 µM) was 0.363, the relative viability ([4]; first compound 0.3162 µM) was 0.377 and the relative viability ([4]; first compound 1 µM) was 0.338.
